According to patent US10144742B2 (Millennium Pharmaceuticals, Inc., priority 2014, dated 2018):

Experiments:
hNAMPT protein = hNAMPT protein (Homo sapiens (Human), UniProt P43490); assay: NAMPT enzyme assay (TR-FRET/HTRF, BodiPY ligand, anti 6His-Tb); format: binding; details: for IC50: NAMPT IC50 range class, read-out: IC50; for inhibition at 1 µM: compound concentration 1 μM, read-out: Percent Inhibition
Outline: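 TR-FRET binding assay in which His-tagged human NAMPT with anti-6His-Tb is displaced by compound from a BodiPY ligand, incubated 1 h at rt in the dark. Excitation was at 320 nm, with the 520/486 nm emission ratio read. IC50 was fitted from inhibition relative to DMSO controls.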

PC3 cells = assay: PC3 growth inhibition (Cell-titer glo, 72 hours); format: cell-based; details: Homo sapiens, PC-3; compound concentration 1.667 μM; PC3 cells, 72 hours, Cell-titer glo; read-out: Percent Inhibition (PC3 growth inhibition)
Outline: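 PC3 cells in RPMI1640 seeded overnight at 37 °C, 5% CO2, then exposed to compound diluted in AIM serum-free medium for 72 h. Viability by CellTiter-Glo luminescence vs DMSO controls; single-concentration % remaining viability (1 μM or 1.667 μM), or GI50/LD50 from curves.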

Chain of hNAMPT protein (P43490 whole entry): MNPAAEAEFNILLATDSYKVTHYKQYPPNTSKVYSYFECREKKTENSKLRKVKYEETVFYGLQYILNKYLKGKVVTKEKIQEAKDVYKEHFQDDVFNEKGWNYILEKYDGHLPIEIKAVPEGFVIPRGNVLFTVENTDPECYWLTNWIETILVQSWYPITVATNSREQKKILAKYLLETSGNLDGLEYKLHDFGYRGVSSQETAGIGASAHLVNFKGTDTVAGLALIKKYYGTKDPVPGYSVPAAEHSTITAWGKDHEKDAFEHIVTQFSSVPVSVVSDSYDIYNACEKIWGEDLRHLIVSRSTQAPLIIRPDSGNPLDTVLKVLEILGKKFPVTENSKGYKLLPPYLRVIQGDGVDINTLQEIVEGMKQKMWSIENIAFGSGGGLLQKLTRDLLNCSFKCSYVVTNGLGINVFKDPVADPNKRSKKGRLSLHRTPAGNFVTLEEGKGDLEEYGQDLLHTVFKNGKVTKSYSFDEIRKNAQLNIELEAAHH

SMILES	IC50 (hNAMPT protein)	inhibition at 1 µM (hNAMPT protein)	inhibition at 1.667 µM (PC3 cells)
O=C(NCCCc1ncc[nH]1)c1ccc2nc(O[C@@H]3CCOC3)c(-c3ccc(F)cc3)nc2c1 [Compound I-372, 3-(4-fluorophenyl)-N-[3-(1H-imidazol-2-yl)propyl]-2-[(3R)-tetrahydrofuran-3-yloxy]quinoxaline-6-carboxamide]	< 100 nM	> 99%	2%
O=C(NCCCc1ncc[nH]1)c1ccc2nc(-c3ccc(F)cc3)c(-c3ccc(F)cc3F)nc2c1 [Compound I-373, 3-(2,4-difluorophenyl)-2-(4-fluorophenyl)-N-[3-(1H-imidazol-2-yl)propyl]quinoxaline-6-carboxamide]	100 to 500 nM	84%	2%
O=C(NCCCc1ncc[nH]1)c1ccc2nc(-n3ccnn3)c(-c3ccc(F)cc3)nc2c1 [Compound I-374, 3-(4-fluorophenyl)-N-[3-(1H-imidazol-2-yl)propyl]-2-(1H-1,2,3-triazol-1-yl)quinoxaline-6-carboxamide]	100 to 500 nM	75%	3%
CC(C)Sc1nc2ccc(C(=O)NCCCc3ncc[nH]3)cc2nc1-c1ccc(F)cc1 [Compound I-375, 3-(4-Fluorophenyl)-N-[3-(1H-imidazol-2-yl)propyl]-2-(isopropylsulfanyl)quinoxaline-6-carboxamide]	100 to 500 nM	80%	2%
O=C(NCCc1ncc[nH]1)c1ccc2nc(-c3ccc(F)cc3)c(-c3cccc(Cl)c3)nc2c1 [Compound I-376, 3-(3-chlorophenyl)-2-(4-fluorophenyl)-N-[2-(1H-imidazol-2-yl)ethyl]quinoxaline-6-carboxamide]	500 to 1000 nM	30%	52%
N#Cc1cc(-c2nc3cc(C(=O)NCCCc4ncc[nH]4)ccc3nc2-c2ccc(F)cc2)ccc1Cl [Compound I-377, 3-(4-chloro-3-cyanophenyl)-2-(4-fluorophenyl)-N-[3-(1H-imidazol-2-yl)propyl]quinoxaline-6-carboxamide]	100 to 500 nM	85%	2%
O=C(NCCCc1ncc[nH]1)c1ccc2nc(OCC3CC4(COC4)C3)c(-c3ccc(F)cc3)nc2c1 [Compound I-378, 3-(4-fluorophenyl)-N-[3-(1H-imidazol-2-yl)propyl]-2-(2-oxaspiro[3.3]hept-6-ylmethoxy)quinoxaline-6-carboxamide]	< 100 nM	> 99%	2%
O=C(NCCCc1ncc[nH]1)c1ccc2nc(OCC3CCOC3)c(-c3ccc(F)cc3)nc2c1 (stereo not drawn) [Compound I-379, 3-(4-fluorophenyl)-N-[3-(1H-imidazol-2-yl)propyl]-2-(tetrahydrofuran-3-ylmethoxy)quinoxaline-6-carboxamide]	< 100 nM	100%	2%
CC(C)Oc1nc2ccc(C(=O)NCCCc3cn[nH]c3)cc2nc1-c1ccc(F)cc1 [Compound I-380, 3-(4-Fluorophenyl)-2-isopropoxy-N-[3-(1H-pyrazol-4-yl)propyl]quinoxaline-6-carboxamide]	500 to 1000 nM	55%	2%
O=C(NCCCc1ncc[nH]1)c1ccc2nc(-c3ccc(F)cc3)c(-c3cc(C(F)(F)F)ccc3Cl)nc2c1 [Compound I-381, 3-[2-chloro-5-(trifluoromethyl)phenyl]-2-(4-fluorophenyl)-N-[3-(1H-imidazol-2-yl)propyl]quinoxaline-6-carboxamide]	< 100 nM	96%	2%
CCc1ccc(-c2nc3cc(C(=O)NCCCc4ncc[nH]4)ccc3nc2-c2ccc(F)cc2)cc1 [Compound I-382, 3-(4-ethylphenyl)-2-(4-fluorophenyl)-N-[3-(1H-imidazol-2-yl)propyl]quinoxaline-6-carboxamide]	500 to 1000 nM	55%	3%
C[C@@H]1CN(c2nc3ccc(C(=O)NCCCc4ncc[nH]4)cc3nc2-c2ccc(F)cc2)C[C@H](C)O1 [Compound I-383, 2-[cis-2,6-dimethylmorpholin-4-yl]-3-(4-fluorophenyl)-N-[3-(1H-imidazol-2-yl)propyl]quinoxaline-6-carboxamide]	< 100 nM	99%	2%
CS(=O)(=O)c1cccc(-c2nc3cc(C(=O)NCCCc4ncc[nH]4)ccc3nc2-c2ccc(F)cc2)c1 [Compound I-384, 2-(4-fluorophenyl)-N-[3-(1H-imidazol-2-yl)propyl]-3-[3-(methylsulfonyl)phenyl]quinoxaline-6-carboxamide]	100 to 500 nM	84%	2%
CC(C)Oc1nc2ccc(C(=O)NCCCc3ncc[nH]3)cc2nc1-c1cccs1 [Compound I-385, N-[3-(1H-imidazol-2-yl)propyl]-2-isopropoxy-3-(2-thienyl)quinoxaline-6-carboxamide]	< 100 nM	> 99%	2%
Cn1ccc2cc(-c3nc4cc(C(=O)NCCCc5ncc[nH]5)ccc4nc3-c3ccc(F)cc3)ccc21 [Compound I-386, 2-(4-fluorophenyl)-N-[3-(1H-imidazol-2-yl)propyl]-3-(1-methyl-1H-indol-5-yl)quinoxaline-6-carboxamide]	100 to 500 nM	90%	2%
O=C(NCCCc1nnc[nH]1)c1ccc2nc(-c3ccc(F)cc3)c(-c3ccc(F)cc3)nc2c1 [Compound I-387, 2,3-bis(4-fluorophenyl)-N-[3-(4H-1,2,4-triazol-3-yl)propyl]quinoxaline-6-carboxamide]	500 to 1000 nM	61%	5%
N#Cc1cc(-c2nc3cc(C(=O)NCCCc4ncc[nH]4)ccc3nc2-c2ccc(F)cc2)ccc1F [Compound I-388, 3-(3-cyano-4-fluorophenyl)-2-(4-fluorophenyl)-N-[3-(1H-imidazol-2-yl)propyl]quinoxaline-6-carboxamide]	100 to 500 nM	81%	3%
O=C(NCCCc1ncc[nH]1)c1ccc2nc(-n3ccc4cnccc43)c(-c3ccc(F)cc3)nc2c1 [Compound I-389, 3-(4-fluorophenyl)-N-[3-(1H-imidazol-2-yl)propyl]-2-(1H-pyrrolo[3,2-c]pyridin-1-yl)quinoxaline-6-carboxamide]	< 100 nM	93%	2%
O=C(NCCCc1ncc[nH]1)c1ccc2nc(OCCc3cnoc3)c(-c3ccc(F)cc3)nc2c1 [Compound I-390, 3-(4-fluorophenyl)-N-[3-(1H-imidazol-2-yl)propyl]-2-[2-(isoxazol-4-yl)ethoxy]quinoxaline-6-carboxamide]	< 100 nM	99%	2%
COc1nccc(-c2nc3cc(C(=O)NCCCc4ncc[nH]4)ccc3nc2-c2ccc(F)cc2)c1F [Compound I-391, 3-(3-fluoro-2-methoxypyridin-4-yl)-2-(4-fluorophenyl)-N-[3-(1H-imidazol-2-yl)propyl]quinoxaline-6-carboxamide]	100 to 500 nM	83%	3%
